Data taken from patent US20080039422A1, “Vitamin B12-Containing Compositions and Methods of Use” (Transition Therapeutics Inc., priority 2004, published 2008).
Values joined by “and” are separate entries in the source; they are usually repeats but may differ in a detail not shown here. Equal values may be shown once.

How the values were obtained:
Assay type in all cases: physicochemical
[1] = Solubility study (saturated solubility of CN-Cbl, 25°C, 16 hours, UV)
Text: During the solubility study the following were investigated: • cosolvents (mixtures of ethanol and propylene glycol) • in-situ salt formers • surfactants • pH effects • in-situ salt formers and cosolvents Solubility Study Method
Results of CN-Cbl Solubility in Water and Determination of Equilibrium Time

[2] = Effects of temperature of heating solution on long-term stability
Description: To study the effect of temperature, in some experiments, the solutions were heated to only 37° C. for 15 minutes (unless otherwise noted, the solutions were prepared as described above: by heating them to 60° C. for two hours, with additional mixing by vortexing carried out for 5-10 seconds every 5-10 minutes).
The effect of heating the solutions to different temperatures on long-term stability was tested. Solutions challenged with 50 or 75 mg/ml CN-Cbl containing 20% ethanol and 20-40% propylene glycol that were prepared at 60° C. and 37° C. were compared. The concentrations of CN-Cbl in solutions prepared at 60° C. were measured after three days, and the concentrations of CN-Cbl in solutions prepared at 37° C. were measured after two weeks. No significant difference was found in the concentrations of CN-Cbl in these solutions when the challenge amount was 50 mg/ml and only a slight difference when the challenge amount was 75 mg/ml. Solutions challenged with either 50 or 75 mg/ml CN-Cbl and containing ethanol and/or propylene glycol were heated to 37° C. (in which case, the concentration of CN-Cbl was measured after two weeks incubation at room temperature) or 60° C. (in which case, the concentration of CN-Cbl was measured after three days incubation at room temperature). Additional information regarding stability was obtained in the experiments described below.

[3] = Stability of CN-Cbl solutions stored at room temperature (3 days, 2 weeks); settings: After 2 weeks at Room Temperature, ethanol 0%, PG 0% (v/v)
[4] = Drug substance properties; settings: 10 mg/ml aqueous solution
Description: Cyanocobalamin (CN-Cbl) is a cobalt containing vitamin and is reported to be sparingly soluble in water in the order of 1:80 or ˜12.5 mg/ml (Merck Index 1996). […] The material appears as dark red crystals or as an amorphous or crystalline red powder. It has a melting point of 300° C. and a molecular weight of 1355.38. The pH of a 10 mg/ml aqueous solution is 5.02.

Saturated Solubility ([1]; Ref. FD4068 89B, 0.15 ml 2m HCl + 0.025M pH 5.6 citrate buffer, Choline 0.044 M (5.34 mg/ml), Initial pH 7.03): 52.6 mg/mL | pH of CN-Cbl Solution ([1]; Ref. FD4068 96, 0.2 ml 2M HCl + 0.025M pH 7.0 phosphate buffer, Choline 0.044 M): 7.96 | Saturated Solubility ([1]; Ref. FD4068 96, 0.2 ml 2M HCl + 0.025M pH 7.0 phosphate buffer, Choline 0.044 M (5.34 mg/ml), Initial pH 8.10): 54.5 mg/mL | pH of CN-Cbl Solution ([1]; Ref. FD4068 102A, 0.4m 2M HCl + 0.025M pH 6.8 phosphate buffer, Choline 0.088 M): 7.97 | Saturated Solubility ([1]; Ref. FD4068 102A, 0.4m 2M HCl + 0.025M pH 6.8 phosphate buffer, Choline 0.088 M (10.67 mg/ml), Initial pH 8.12): 58.5 mg/mL | pH of CN-Cbl Solution ([1]; Ref. FD4068 103, no buffer, pH adjusted with HCl, Choline 0.044 M): 7.21 | Saturated Solubility ([1]; Ref. FD4068 103, no buffer, pH adjusted with HCl, Choline 0.044 M (5.34 mg/ml), Initial pH 8.05): 54.6 mg/mL | Saturated Solubility ([1]; Ref. FD4068 107A, Choline chloride 0.044 M (6.14 mg/ml, Molar Ratio 1:1), 40% v/v propylene glycol, 10% v/v ethanol, pH adjusted to 8 with sodium hydroxide): 53.2 mg/mL | pH of CN-Cbl Solution ([1]; Ref. FD4068 107A, Choline chloride 0.044 M, 40% v/v propylene glycol, 10% v/v ethanol): 6.36 | Saturated Solubility ([1]; Ref. FD4068 108B, Choline chloride 0.221 M (30.86 mg/ml, Molar Ratio 1:5), 40% v/v propylene glycol, 10% v/v ethanol, pH adjusted to 8 with sodium hydroxide): 60.1 mg/mL | pH of CN-Cbl Solution ([1]; Ref. FD4068 108B, Choline chloride 0.221 M, 40% v/v propylene glycol, 10% v/v ethanol): 6.51 | Saturated Solubility ([1]; Ref. FD4068 109A, Choline chloride 0.133 M (18.57 mg/ml, Molar Ratio 1:3), 40% v/v propylene glycol, 10% v/v ethanol, pH adjusted to 8 with sodium hydroxide): 57.4 mg/mL | pH of CN-Cbl Solution ([1]; Ref. FD4068 109A, Choline chloride 0.133 M, 40% v/v propylene glycol, 10% v/v ethanol): 6.63 | Saturated Solubility ([1]; Ref. FD4068 110A, Choline chloride 0.443 M (61.81 mg/ml, Molar Ratio 1:10), 40% v/v propylene glycol, 10% v/v ethanol, pH adjusted to 8 with sodium hydroxide): 66.6 mg/mL | pH of CN-Cbl Solution ([1]; Ref. FD4068 110A, Choline chloride 0.443 M, 40% v/v propylene glycol, 10% v/v ethanol): 6.40 | Saturated Solubility ([1]; Ref. FD4068 112A, Choline chloride 0.443 M (61.81 mg/ml, 1:10), 40% v/v propylene glycol, 10% v/v ethanol, 0.025 M phosphate buffer pH 8): 66.8 mg/mL | pH of CN-Cbl Solution ([1]; Ref. FD4068 112A, Choline chloride 0.443 M, 40% v/v propylene glycol, 10% v/v ethanol, 0.025 M phosphate buffer): 7.93 | Saturated Solubility ([1]; Ref. FD4068 112B, Choline chloride 0.184 M (25.75 mg/ml, 1:5), 40% v/v propylene glycol, 10% v/v ethanol, 0.025 M phosphate buffer pH 8): 62.7 mg/mL | pH of CN-Cbl Solution ([1]; Ref. FD4068 112B, Choline chloride 0.184 M, 40% v/v propylene glycol, 10% v/v ethanol, 0.025 M phosphate buffer): 7.97 | Saturated Solubility ([1]; Water, Equilibrium Time 16 hours): 15.25 mg/mL | Saturated Solubility ([1]; Water, Equilibrium Time 24 hours): 15.47 mg/mL | Saturated Solubility ([1]; Water, Equilibrium Time 40 hours): 15.27 mg/mL | Saturated Solubility, mean ([1]; Water, mean of equilibrium times 16, 24, 40 hours): 15.33 mg/mL | pH of CN-Cbl Solution ([1]; saturated in 0.1 M Choline (12.12 mg/ml)): 12.5 and 12.49 | pH of CN-Cbl Solution ([1]; saturated in 0.1 M Diethanolamine (10.51 mg/ml)): 10.15 | pH of CN-Cbl Solution ([1]; saturated in 0.1 M L-arginine (17.42 mg/ml)): 10.22 | pH of CN-Cbl Solution ([1]; saturated in 0.1 M L-lysine (16.42 mg/ml)): 9.59 | pH of CN-Cbl Solution ([1]; saturated in 0.1 M Meglumine (19.52 mg/ml)): 10.70 | pH of CN-Cbl Solution ([1]; saturated in 0.1 M Triethanolamine (14.92 mg/ml)): 9.26 | pH of CN-Cbl Solution ([1]; saturated in 0.1 M Triethylamine (10.12 mg/ml)): 11.42 | Conc of CN-Cbl ([2]; heated to 37 degrees, After 2 weeks at Room Temperature, challenge 50 mg/mL, ethanol 20%, PG 20%): 47080 µg/mL | Conc of CN-Cbl ([2]; heated to 37 degrees, After 2 weeks at Room Temperature, challenge 50 mg/mL, ethanol 20%, PG 30%): 49780 µg/mL | Conc of CN-Cbl ([2]; heated to 37 degrees, After 2 weeks at Room Temperature, challenge 50 mg/mL, ethanol 20%, PG 40%): 49870 µg/mL | Conc of CN-Cbl ([2]; heated to 37 degrees, After 2 weeks at Room Temperature, challenge 75 mg/mL, ethanol 20%, PG 20%): 38390 µg/mL | Conc of CN-Cbl ([2]; heated to 37 degrees, After 2 weeks at Room Temperature, challenge 75 mg/mL, ethanol 20%, PG 30%): 59620 µg/mL | Conc of CN-Cbl ([2]; heated to 37 degrees, After 2 weeks at Room Temperature, challenge 75 mg/mL, ethanol 20%, PG 40%): 75820 µg/mL | Conc of CN-Cbl ([2]; heated to 60 degrees, After 3 days at Room Temperature, challenge 50 mg/mL, ethanol 0%, PG 0%): 12850 µg/mL | Conc of CN-Cbl ([2]; heated to 60 degrees, After 3 days at Room Temperature, challenge 50 mg/mL, ethanol 20%, PG 0%): 24410 µg/mL | Conc of CN-Cbl ([2]; heated to 60 degrees, After 3 days at Room Temperature, challenge 50 mg/mL, ethanol 20%, PG 10%): 32320 µg/mL | Conc of CN-Cbl ([2]; heated to 60 degrees, After 3 days at Room Temperature, challenge 50 mg/mL, ethanol 20%, PG 20%): 49870 µg/mL | Conc of CN-Cbl ([2]; heated to 60 degrees, After 3 days at Room Temperature, challenge 50 mg/mL, ethanol 20%, PG 30%): 48330 µg/mL | Conc of CN-Cbl ([2]; heated to 60 degrees, After 3 days at Room Temperature, challenge 50 mg/mL, ethanol 20%, PG 40%): 50360 µg/mL | Conc of CN-Cbl ([2]; heated to 60 degrees, After 3 days at Room Temperature, challenge 75 mg/mL, ethanol 0%, PG 0%): 14010 µg/mL | Conc of CN-Cbl ([2]; heated to 60 degrees, After 3 days at Room Temperature, challenge 75 mg/mL, ethanol 20%, PG 0%): 24410 µg/mL | Conc of CN-Cbl ([2]; heated to 60 degrees, After 3 days at Room Temperature, challenge 75 mg/mL, ethanol 20%, PG 10%): 30100 µg/mL | Conc of CN-Cbl ([2]; heated to 60 degrees, After 3 days at Room Temperature, challenge 75 mg/mL, ethanol 20%, PG 20%): 60780 µg/mL | Conc of CN-Cbl ([2]; heated to 60 degrees, After 3 days at Room Temperature, challenge 75 mg/mL, ethanol 20%, PG 30%): 76600 µg/mL | Conc of CN-Cbl ([2]; heated to 60 degrees, After 3 days at Room Temperature, challenge 75 mg/mL, ethanol 20%, PG 40%): 74280 µg/mL | Conc of CN-Cbl ([3]; challenge 50 mg/mL): 11460 µg/mL | Conc of CN-Cbl ([3]; challenge 75 mg/mL): 12310 µg/mL | pH of aqueous solution [4]: 5.02
Substance: cyanocobalamin [CN-Cbl]
